Experimental data reported in the COVID Moonshot data (paper PMC7615835).
pIC50: −log10 of the molar value. “And” between values parts separate entries of the source, which are not always exact repeats. Identical values can stand only once.

target: SARS-CoV-2 Main Protease (SARS-CoV-2) (UniProt P0DTD1)

How did the pIC50 turn out when `O=C(Nc1cncc2cc(CN3CC4(CNC4)C3)ccc12)C1CCOc2ccc(Cl)cc21` (centres undefined) was run?
Its pIC50 is 5.84.

`COC(=O)c1c(C)nn(C(=O)c2cccs2)c1-c1snnc1C` was tested. Which pIC50 did it give?
The pIC50 was 5.24.

How did the pIC50 turn out when `CNC(=O)C1(N2Cc3ccc(Cl)cc3C3(CCN(c4cncc5ccccc45)C3=O)C2)CC1` (centres undefined) was run?
The pIC50 was 7.14.

`O=C(Cc1cc(Cl)cc(Nc2ccc3ccccc3c2O)c1)Nc1cncc2ccccc12` was tested. Which pIC50 did it give?
Its pIC50 is 5.39.

`CC(C)(C)OC(=O)N(c1cc(Cl)cc(CC(=O)Nc2cncc3ccccc23)c1)C1CNC1` was tested. Which pIC50 did it give?
The pIC50 was 5.69.

With `COc1cc2c(cc1Nc1cc(Cl)cc(CC(=O)Nc3cncc4ccccc34)c1)oc1ccccc12` as the molecule, how does the pIC50 read?
Its pIC50 is 5.73.

`CC1(C(=O)Nc2cncc3ccccc23)CNC(=O)c2ccc(Cl)cc21` (centres undefined) was tested. Which pIC50 did it give?
The pIC50 was 6.06.

`O=C(Nc1cncc2ccccc12)C1COc2c(Cl)cccc21` (centres undefined) was tested. Which pIC50 did it give?
Its pIC50 is 5.32.

With `O=C1CCc2cc(C(=O)N3CCC(C4CCNC4)CC3)ccc2N1` (centres undefined) as the molecule, how does the pIC50 read?
The pIC50 was < 4.00.

`Cn1ncc(S(=O)(=O)N2Cc3ccc(Cl)cc3C(C(=O)Nc3cncc4ccccc34)C2)n1` (centres undefined) was tested. Which pIC50 did it give?
Its pIC50 is 6.57.

How did the pIC50 turn out when `CC(NC(=O)CN)(C(=O)Nc1cncc2ccccc12)c1ccc(Cl)c(Cl)c1` (centres undefined) was run?
Its pIC50 is 5.21 and 5.74.

`c1ccc2oc(C3CCCN(Cc4cnc5cnccn45)C3)nc2c1` (centres undefined) was tested. Which pIC50 did it give?
Its pIC50 is < 4.00.

`O=C(Cc1cc(Cl)cc(N2CCN(c3nsc4ccccc34)CC2)c1)Nc1cncc2ccccc12` was tested. Which pIC50 did it give?
The pIC50 was 5.48.

How did the pIC50 turn out when `CNC(=O)CN1CC(C(=O)Nc2cncc3cccc(C)c23)c2cc(Cl)ccc2C1=O` (centres undefined) was run?
The pIC50 was 6.44.

With `O=C(Cc1cc(Cl)cc(Nc2c(Cl)cc(Cl)cc2Br)c1)Nc1cncc2ccccc12` as the molecule, how does the pIC50 read?
The pIC50 was 5.79.

With `O=C(Nc1ccc(-c2nnc[nH]2)cc1)c1cccc(F)c1F` as the molecule, how does the pIC50 read?
Its pIC50 is < 4.00.

How did the pIC50 turn out when `CS(=O)(=O)N1CCN(C(=O)CCl)CC1c1ccccc1` (centres undefined) was run?
The pIC50 was 4.97.

`COc1ccc(-c2ccccc2S(=O)(=O)N2CCN(C(=O)CCl)CC2)cc1` was tested. Which pIC50 did it give?
The pIC50 was 6.26.

With `O=c1[nH]c(-c2nnc[nH]2)nc2cc(-c3ccccc3Cl)sc12` as the molecule, how does the pIC50 read?
The pIC50 was < 4.00.

How did the pIC50 turn out when `CC(C)(CNC(=O)C1CNC(=O)N1)N1CCc2ccccc2C1` (centres undefined) was run?
The pIC50 was < 4.00.

How did the pIC50 turn out when `O=C(Nc1nncn1C1CC1)C1CCS(=O)(=O)c2ccccc21` (centres undefined) was run?
The pIC50 was 4.16.

`Cc1cccn2ncc(NC(=O)C3CNC(=O)c4ccc(Cl)cc43)c12` (centres undefined) was tested. Which pIC50 did it give?
The pIC50 was 5.62.

How did the pIC50 turn out when `O=c1[nH]c2ccc(NC(=S)Nc3ccccc3Cl)cc2[nH]1` was run?
Its pIC50 is < 4.00.

`CC(C)NC(=O)CN1CC(C(=O)Nc2cncc3cc(S(C)(=O)=O)ccc23)c2cc(Cl)ccc2C1=O` (centres undefined) was tested. Which pIC50 did it give?
Its pIC50 is 6.48.

`O=C(CC1(C(=O)Nc2cncc3ccccc23)CCOc2ccc(Cl)cc21)N1CCC2CS(=O)(=O)CC2C1` (centres undefined) was tested. Which pIC50 did it give?
The pIC50 was 5.78.

`Cc1nc(CN2C(=O)C(=O)c3cc(Br)ccc32)cs1` was tested. Which pIC50 did it give?
Its pIC50 is < 4.00.

How did the pIC50 turn out when `CN(Cc1ccccc1Br)c1cc(Cl)cc(CC(=O)Nc2cncc3ccccc23)c1` was run?
The pIC50 was 5.68.

With `O=C(Cc1cc(Cl)cc(Nc2nc(Cl)nc3nc[nH]c23)c1)Nc1cncc2ccccc12` as the molecule, how does the pIC50 read?
The pIC50 was 5.63.

`CC(C)(C)c1ccc(N(C(=O)c2n[nH]c(=O)[nH]c2=O)C(C(=O)NCCc2cccc(F)c2)c2cccnc2)cc1` (centres undefined) was tested. Which pIC50 did it give?
Its pIC50 is < 4.00.

`COc1ccc(-c2cc(COc3cc(Cl)cc(CC(=O)Nc4cnccc4C)c3)on2)cc1` was tested. Which pIC50 did it give?
Its pIC50 is 4.20 and 4.09.

`C[C@H](Nc1cc(Cl)cc(CC(=O)Nc2cncc3ccccc23)c1)c1ccc(Br)cc1` (stereo in doubt) was tested. Which pIC50 did it give?
The pIC50 was 5.42.

`O=C(Nc1cncc2[nH]c(=O)[nH]c12)C1CCOc2ccc(Cl)cc21` (centres undefined) was tested. Which pIC50 did it give?
Its pIC50 is 4.20.

With `N#CCC(=O)N1CCc2ccc(Cl)cc2C1C(=O)Nc1cncc2ccccc12` (centres undefined) as the molecule, how does the pIC50 read?
The pIC50 was 5.19.

With `O=C(NCCc1cccc(F)c1)C(c1cccnc1)N(C(=O)c1cnc[nH]1)C1CCCC2(CCC2)C1` (centres undefined) as the molecule, how does the pIC50 read?
The pIC50 was < 4.00.

`Cc1cc(C)c(C)c(S(=O)(=O)N2CCN(C(=O)c3cc(=O)[nH]c4ccccc34)CC2)c1C` was tested. Which pIC50 did it give?
Its pIC50 is 5.09 and 5.06.

How did the pIC50 turn out when `NC(=O)CN1Cc2ccc(Cl)cc2C(C(=O)Nc2cncc3ccccc23)C1` (centres undefined) was run?
Its pIC50 is 6.96 and 6.93 and 6.89.

`CN(C)c1ccc(N(Cc2ccn[nH]2)C(=O)Cn2nnc3ccccc32)cc1` was tested. Which pIC50 did it give?
The pIC50 was 4.80.

How did the pIC50 turn out when `O=C(Cc1cc(Cl)cc(Nc2ccc(I)c(F)c2)c1)Nc1cncc2ccccc12` was run?
Its pIC50 is 5.69.

How did the pIC50 turn out when `CCN(CC)S(=O)(=O)c1ccc(S(=O)(=O)N2CCN(S(N)(=O)=O)CC2)cc1` was run?
Its pIC50 is < 4.00.

`O=C(Nc1n[nH]c2ccncc12)C1CCOc2ccc(Cl)cc21` (centres undefined) was tested. Which pIC50 did it give?
The pIC50 was 4.15.

With `O=C1CC(N2CC(C(=O)Nc3cncc4ccccc34)c3cc(Cl)ccc3C2=O)CN1` (centres undefined) as the molecule, how does the pIC50 read?
Its pIC50 is 6.17.

`CC(C)Oc1ccc(N(C(=O)c2cnc[nH]2)C(C(=O)NCCc2cccc(F)c2)c2cccnc2)cc1` (centres undefined) was tested. Which pIC50 did it give?
Its pIC50 is 6.07 and 6.23.

`O=C1OC2(CCOc3ccc(Cl)cc32)C(=O)N1c1cncc2ccccc12` (centres undefined) was tested. Which pIC50 did it give?
The pIC50 was < 4.00.

How did the pIC50 turn out when `O=C(Cc1cc(Cl)cc(Nc2cncc(Br)c2)c1)Nc1cncc2ccccc12` was run?
The pIC50 was 5.67.

`COc1ccccc1N(C(=O)c1ccco1)C(C(=O)NCCc1cccc(F)c1)c1cccnc1` (centres undefined) was tested. Which pIC50 did it give?
The pIC50 was < 4.00.

With `CN(CC#N)S(=O)(=O)N1Cc2ccc(Cl)cc2C2(CCN(c3cncc4ccccc34)C2=O)C1` (centres undefined) as the molecule, how does the pIC50 read?
The pIC50 was 6.39.

How did the pIC50 turn out when `CC(C)Sc1ccccc1Nc1cc(Cl)cc(CC(=O)Nc2cncc3ccccc23)c1` was run?
Its pIC50 is 5.70.

`O=C(Cc1cc(Cl)cc(N2CCN(Cc3ccc(C(F)(F)F)cc3)CC2)c1)Nc1cncc2ccccc12` was tested. Which pIC50 did it give?
Its pIC50 is 5.37.

With `O=C(Cc1cccnc1)Nc1cccc(OC2CC(=O)N2)c1` (centres undefined) as the molecule, how does the pIC50 read?
Its pIC50 is 4.08 and 4.03.
